Experimental data as given in PubChem BioAssay (NCI).
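All cell lines were grown in 96-well plates and treated with compound for 48 hours. GI50: concentration for 50% inhibition of growth. TGI is the concentration that stops growth completely.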

Key:
Assay in all cases: NCI anticancer screen, dose series, 48 h
ACHN renal = system: ACHN renal
SK-MEL-5 melanoma = system: SK-MEL-5 melanoma
K-562 leukemia = system: K-562 leukemia
HCT-15 colon = system: HCT-15 colon
SNB-19 CNS = system: SNB-19 CNS
SK-OV-3 ovarian = system: SK-OV-3 ovarian
T-47D breast = system: T-47D breast
786-0 renal = system: 786-0 renal
NCI-H522 lung = system: NCI-H522 lung
BT-549 breast = system: BT-549 breast
SK-MEL-2 melanoma = system: SK-MEL-2 melanoma
LOX IMVI melanoma = system: LOX IMVI melanoma
MDA-MB-435 = system: MDA-MB-435
NCI/ADR-RES ovarian = system: NCI/ADR-RES ovarian
SW-620 colon = system: SW-620 colon
SR leukemia = system: SR leukemia
NCI-H23 lung = system: NCI-H23 lung
HS 578T breast = system: HS 578T breast
CCRF-CEM leukemia = system: CCRF-CEM leukemia
OVCAR-4 ovarian = system: OVCAR-4 ovarian
A498 renal = system: A498 renal
OVCAR-5 ovarian = system: OVCAR-5 ovarian
A549 NSCLC = system: A549 NSCLC
HL-60(TB) leukemia = system: HL-60(TB) leukemia
IGROV1 ovarian = system: IGROV1 ovarian
NCI-H226 lung = system: NCI-H226 lung
MCF7 breast = system: MCF7 breast
MOLT-4 leukemia = system: MOLT-4 leukemia

**Q.** For `COc1ccc([C@H]2C(=O)N(c3cc(OC)c(OC)c(OC)c3)[C@@H]2c2ccc(OC)c(O)c2)cc1`, which GI50 (ACHN renal) is on record?
**A.** The GI50 was 53.5 nM.

**Q.** What about the TGI (ACHN renal) of the same compound?
**A.** Its TGI is 69.9 µM.

**Q.** And the GI50 (SK-MEL-5 melanoma)?
**A.** The GI50 was 20.2 nM.

**Q.** What about the TGI (SK-MEL-5 melanoma) of the same compound?
**A.** The TGI was 42.9 nM.

**Q.** What about the GI50 (K-562 leukemia) of the same compound?
**A.** The GI50 was 27.6 nM.

**Q.** And the TGI (K-562 leukemia)?
**A.** The TGI was greater than 100 µM.

**Q.** And the GI50 (HCT-15 colon)?
**A.** The GI50 was 30.5 nM.

**Q.** And the TGI (HCT-15 colon)?
**A.** Its TGI is greater than 100 µM.

**Q.** And the GI50 (SNB-19 CNS)?
**A.** The GI50 was 45.4 nM.

**Q.** What about the TGI (SNB-19 CNS) of the same compound?
**A.** Its TGI is greater than 100 µM.

**Q.** What about the GI50 (SK-OV-3 ovarian) of the same compound?
**A.** Its GI50 is 42.2 nM.

**Q.** And the TGI (SK-OV-3 ovarian)?
**A.** Its TGI is greater than 100 µM.

**Q.** What about the GI50 (T-47D breast) of the same compound?
**A.** Its GI50 is 27.3 µM.

**Q.** And the TGI (T-47D breast)?
**A.** The TGI was greater than 100 µM.

**Q.** What about the GI50 (786-0 renal) of the same compound?
**A.** Its GI50 is 32.4 nM.

**Q.** And the TGI (786-0 renal)?
**A.** Its TGI is greater than 100 µM.

**Q.** What about the GI50 (NCI-H522 lung) of the same compound?
**A.** The GI50 was 12.4 nM.

**Q.** What about the TGI (NCI-H522 lung) of the same compound?
**A.** Its TGI is 49.1 nM.

**Q.** What about the GI50 (BT-549 breast) of the same compound?
**A.** The GI50 was 58 nM.

**Q.** And the TGI (BT-549 breast)?
**A.** Its TGI is 3.83 µM.

**Q.** And the GI50 (SK-MEL-2 melanoma)?
**A.** Its GI50 is 50.2 nM.

**Q.** What about the TGI (SK-MEL-2 melanoma) of the same compound?
**A.** Its TGI is greater than 100 µM.

**Q.** What about the GI50 (LOX IMVI melanoma) of the same compound?
**A.** The GI50 was 26.1 nM.

**Q.** And the TGI (LOX IMVI melanoma)?
**A.** Its TGI is 82.1 µM.

**Q.** What about the GI50 (MDA-MB-435) of the same compound?
**A.** Its GI50 is 29.7 nM.

**Q.** What about the TGI (MDA-MB-435) of the same compound?
**A.** The TGI was 1850 nM.

**Q.** And the GI50 (NCI/ADR-RES ovarian)?
**A.** The GI50 was 19.5 nM.

**Q.** And the TGI (NCI/ADR-RES ovarian)?
**A.** Its TGI is 51.3 nM.

**Q.** What about the GI50 (SW-620 colon) of the same compound?
**A.** The GI50 was 51.6 nM.

**Q.** What about the TGI (SW-620 colon) of the same compound?
**A.** The TGI was greater than 100 µM.

**Q.** What about the GI50 (SR leukemia) of the same compound?
**A.** Its GI50 is 25.8 nM.

**Q.** And the TGI (SR leukemia)?
**A.** The TGI was greater than 100 µM.

**Q.** What about the GI50 (NCI-H23 lung) of the same compound?
**A.** Its GI50 is 37.8 nM.

**Q.** What about the TGI (NCI-H23 lung) of the same compound?
**A.** Its TGI is 72.2 µM.

**Q.** And the GI50 (HS 578T breast)?
**A.** The GI50 was 42.2 nM.

**Q.** What about the TGI (HS 578T breast) of the same compound?
**A.** Its TGI is greater than 100 µM.

**Q.** What about the GI50 (CCRF-CEM leukemia) of the same compound?
**A.** Its GI50 is 30.8 nM.

**Q.** And the TGI (CCRF-CEM leukemia)?
**A.** The TGI was greater than 100 µM.

**Q.** And the GI50 (OVCAR-4 ovarian)?
**A.** The GI50 was 17.1 µM.

**Q.** What about the TGI (OVCAR-4 ovarian) of the same compound?
**A.** The TGI was greater than 100 µM.

**Q.** And the GI50 (A498 renal)?
**A.** The GI50 was 33.6 µM.

**Q.** What about the TGI (A498 renal) of the same compound?
**A.** The TGI was greater than 100 µM.

**Q.** And the GI50 (OVCAR-5 ovarian)?
**A.** Its GI50 is 45.9 nM.

**Q.** And the TGI (OVCAR-5 ovarian)?
**A.** The TGI was greater than 100 µM.

**Q.** And the GI50 (A549 NSCLC)?
**A.** The GI50 was 40.1 nM.

**Q.** What about the TGI (A549 NSCLC) of the same compound?
**A.** Its TGI is greater than 100 µM.

**Q.** What about the GI50 (HL-60(TB) leukemia) of the same compound?
**A.** Its GI50 is 21.6 nM.

**Q.** What about the TGI (HL-60(TB) leukemia) of the same compound?
**A.** The TGI was 52.7 nM.

**Q.** What about the GI50 (IGROV1 ovarian) of the same compound?
**A.** The GI50 was 42.4 nM.

**Q.** And the TGI (IGROV1 ovarian)?
**A.** The TGI was greater than 100 µM.

**Q.** And the GI50 (NCI-H226 lung)?
**A.** The GI50 was 27.4 nM.

**Q.** And the TGI (NCI-H226 lung)?
**A.** The TGI was 89.8 nM.

**Q.** What about the GI50 (MCF7 breast) of the same compound?
**A.** Its GI50 is 32.7 nM.

**Q.** What about the TGI (MCF7 breast) of the same compound?
**A.** The TGI was greater than 100 µM.

**Q.** And the GI50 (MOLT-4 leukemia)?
**A.** Its GI50 is 46.4 nM.

**Q.** What about the TGI (MOLT-4 leukemia) of the same compound?
**A.** The TGI was greater than 100 µM.
